Results on one compound are retold here after patent US9468209B2, “Method for eradicating weeds with derivatives of 3-acetyl-5-sec-butyl-4-hydroxy-3-pyrrolin-2-one” (priority 2012, dated 2016).

Experiment in all cases: Leaf piece damage test
Holding throughout (type): in vivo
Common to all, as to set-up: key: 4: The leaf completely dead; 3: Two third of the leaf withered; 2: One half of the leaf withered; 1: Only edge of the leaf withered; 0: Not damage at all
What all share (conditions): 50 μg/mL, 4 days

One experiment relates to Lapsana apogonoides. The method, then: (§1) Compounds 7, 14, 15, 16, 40, 45, 48 and 53 were dissolved individually in small amount of methanol, and diluted with distilled water to concentration of 50 μg/mL. Methanol water solution and pure water were used as control. A piece of 5 mm leaf was taken from the second leaf of weed sample and was treated with the solution three times. 5 pieces of the leaf were prepared for each treatment. The damage data were collected 4 days later. The measurement of damage level is described in the Table 9.
(§2) The measurement of the plant damage was calculated by the formula: Damage Index=Σ(damage level×number of plants)×100/4/number of plants in each treatment.

Another experiment deals with Common polypogon. Here is the method: as §1, §2
Another experiment concerns Galeopsis bifida. Here is the method:
as §1, §2

The test system of experiment [1] is Green foxtail (Setaria viridis). The method, then: as §1, §2
A further experiment deals with Eupatorium adenophorum. Here is the method:
as §1, §2

The subject of a further experiment is Duchesnea indica. Here is the method:
as §1, §2

A further experiment deals with Oxalis corniculata. Here is the method:
as §1, §2

For the next experiment, the system named is Ambrosia artemisiifolia. Here is the method:
as §1, §2

For a further experiment, the system named is Cyperus rotundus. The method, then:
as §1, §2

In another experiment the test system is Polygonum lapathifolium. Here is the method:
as §1, §2

In a further experiment the test system is Goose grass. The method, then:
as §1, §2

The subject of the next experiment is Xanthium sibiricum. The method, then: as §1, §2
In the next experiment the test system is Big Bristlegass. The method, then: as §1, §2
Experiment [2] deals with Aster ageratoides var. scaberulus. The method, then: as §1, §2
The subject of a further experiment is Veronica didyma. The method, then: as §1, §2
A further experiment concerns Veronica percica. The method, then:
as §1, §2

The test system of a further experiment is Wild oats. Here is the method: as §1, §2
Another experiment has as its system Leptochloa chinensis. The method, then: as §1, §2
The test system of another experiment is Sonchus oleraceus. Here is the method:
as §1, §2

A further experiment has as its system Plantago asiatica. The method, then:
as §1, §2

Another experiment concerns Equal alopecurus. The method, then:
as §1, §2

Experiment [3] relates to Crabgrass (Digitaria sanguinalis). The method, then: as §1, §2

In the case of `CCCCCCC1NC(=O)C(C(C)=O)=C1O` (stereo not shown) [Compound 16], the Damage level with Lapsana apogonoides is 3; in the experiment on Common polypogon, 3; with Galeopsis bifida it was 2; in [1], 3; with Eupatorium adenophorum, 4; in the experiment on Duchesnea indica, 2. Moreover, the Damage level is 4 with Oxalis corniculata; 3 with Ambrosia artemisiifolia; 2 with Cyperus rotundus; 2 in the experiment on Polygonum lapathifolium; 3 in the experiment with Goose grass; 2 in the experiment with Xanthium sibiricum. In addition, the Damage level with Big Bristlegass turned out to be 3; in experiment [2] it was 4; with Veronica didyma, 2; in the experiment with Veronica percica, 2; with Wild oats it was 3; with Leptochloa chinensis, 4. The Damage level in the experiment on Sonchus oleraceus is 3; with Plantago asiatica, 2; in the experiment with Equal alopecurus, 3; in experiment [3], 4.
